Experiments:
MCF-7 cells = assay: Breast Cancer Cell Viability Assays (MCF-7, CellTiter-Glo); type: cell-based; conditions: 5 days' compound exposure; for IC50: Homo sapiens, MCF7, 120 h
In short: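 MCF-7 cells (320/well, RPMI with 10% FBS) exposed for 5 days to an eleven-point semilog series, 0.3–0.000003 μM final. Viability read by CellTiter-Glo luminescence, expressed as background-corrected percent of untreated cells.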

ER-α in MCF-7 cells = molecular target: T1, ER-α in MCF-7 cells (Homo sapiens, UniProt P03372); assay: Breast Cancer Cell ER-α In Cell Western Assay (SP1); type: cell-based; conditions: 4 or 24 hr post compound addition; for Emax: MCF7, SP1 antibody, read-out: ER-α In Cell Western Assay (SP1) Max Response; for DC50: SP1 antibody, read-out: ER-α In Cell Western Assay (SP1) IC50
T1 construct: endogenous in cells; host or cells: MCF-7
T1 sequence (P03372 1-595): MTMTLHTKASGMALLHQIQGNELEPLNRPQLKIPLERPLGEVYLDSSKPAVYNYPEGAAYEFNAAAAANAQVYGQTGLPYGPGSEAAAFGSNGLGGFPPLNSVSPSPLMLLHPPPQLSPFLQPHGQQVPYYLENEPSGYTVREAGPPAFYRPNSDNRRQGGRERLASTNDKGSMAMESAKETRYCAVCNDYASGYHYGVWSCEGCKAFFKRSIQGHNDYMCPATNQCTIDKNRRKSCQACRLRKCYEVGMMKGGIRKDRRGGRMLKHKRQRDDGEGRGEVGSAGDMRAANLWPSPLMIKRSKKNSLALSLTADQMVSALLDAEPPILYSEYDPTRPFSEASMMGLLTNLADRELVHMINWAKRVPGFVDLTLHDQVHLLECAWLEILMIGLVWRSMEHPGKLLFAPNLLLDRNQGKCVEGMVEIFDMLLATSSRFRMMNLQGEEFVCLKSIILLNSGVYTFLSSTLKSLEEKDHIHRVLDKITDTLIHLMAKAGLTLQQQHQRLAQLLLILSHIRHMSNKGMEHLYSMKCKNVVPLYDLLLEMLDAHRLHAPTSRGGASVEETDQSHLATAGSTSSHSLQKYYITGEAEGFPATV
In short: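 MCF-7 cells in charcoal-stripped FBS medium, treated with 11-point semilog dilutions (0.3–0.000003 μM final) for 4 or 24 h. Fixed cells immunostained with SP1 antibody (800 nm) and DRAQ5 DNA (700 nm); ER/DNA ratio expressed as % of untreated cells.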

| SMILES | IC50 (MCF-7 cells) [nM] | Emax (ER-α in MCF-7 cells) [%] | DC50 (ER-α in MCF-7 cells) [nM] | MCF7 Viability Assay Max Response (MCF-7 cells) |
| --- | --- | --- | --- | --- |
| COc1ccc(/C(=C(\c2ccc(/C=C/c3noc(=O)[nH]3)cc2)c2ccc3scnc3c2)C2CCC2)c(Cl)c1 [Example 278, 3-((E)-4-((E)-1-(Benzo[d]thiazol-5-yl)-2-(2-chloro-4-methoxyphenyl)-2-cyclobutylvinyl)styryl)-1,2,4-oxadiazol-5(4H)-one] | ≤ 100 | ≥ 40 | ≤ 100 | ++ (++ = a single % value ≧ 40%) |
| O=c1[nH]c(/C=C/c2ccc(/C(=C(\c3ncc(C(F)(F)F)cc3Cl)C3CCC3)c3ccc4[nH]nc(F)c4c3)cc2)no1 [Example 279, 3-((E)-4-((E)-2-(3-Chloro-5-(trifluoromethyl)pyridin-2-yl)-2-cyclobutyl-1-(3-fluoro-1H-indazol-5-yl)vinyl)styryl)-1,2,4-oxadiazol-5(4H)-one] | ≤ 100 | ≥ 40 | ≤ 100 | ++ (++ = a single % value ≧ 40%) |
| N#Cc1cc(C(F)(F)F)ccc1/C(=C(\c1ccc(/C=C/c2noc(=O)[nH]2)cc1)c1ccc2[nH]nc(F)c2c1)C1CCC1 [Example 280, 2-((E)-1-Cyclobutyl-2-(3-fluoro-1H-indazol-5-yl)-2-(4-((E)-2-(5-oxo-4,5-dihydro-1,2,4-oxadiazol-3-yl)vinyl)phenyl)vinyl)-5-(trifluoromethyl)benzonitrile] | ≤ 100 | ≥ 40 | ≤ 100 | ++ (++ = a single % value ≧ 40%) |
| CS(=O)(=O)c1cc(Cl)ccc1/C(=C(\c1ccc(/C=C/C(=O)O)cc1)c1ccc2scnc2c1)C1CCC1 [Example 281, (E)-3-(4-((E)-1-(Benzo[d]thiazol-5-yl)-2-(4-chloro-2-(methylsulfonyl)phenyl)-2-cyclobutylvinyl)phenyl)acrylic acid] | ≤ 100 | ≥ 40 | ≤ 100 | ++ (++ = a single % value ≧ 40%) |
| CS(=O)(=O)c1cc(Cl)ccc1/C(=C(\c1ccc(/C=C/C(=O)O)cc1)c1ccc2[nH]nc(F)c2c1)C1CCC1 [Example 282, (E)-3-(4-((E)-2-(4-Chloro-2-(methylsulfonyl)phenyl)-2-cyclobutyl-1-(3-fluoro-1H-indazol-5-yl)vinyl)phenyl)acrylic acid] | ≤ 100 | ≥ 40 | ≤ 100 | ++ (++ = a single % value ≧ 40%) |
| O=c1[nH]nc(/C=C/c2ccc(/C(=C(\c3ccccc3)C3CCC3)c3ccc4[nH]nc(F)c4c3)cc2)[nH]1 [Example 283, 3-((E)-4-((E)-2-Cyclobutyl-1-(3-fluoro-1H-indazol-5-yl)-2-phenylvinyl)styryl)-1H-1,2,4-triazol-5(4H)-one] | ≤ 100 | ≥ 40 | ≤ 100 | ++ (++ = a single % value ≧ 40%) |
| Fc1n[nH]c2ccc(/C(=C(/c3ccccc3)C3CCC3)c3ccc(/C=C/c4nnc[nH]4)cc3)cc12 [Example 284, 5-((E)-1-(4-((E)-2-(4H-1,2,4-Triazol-3-yl)vinyl)phenyl)-2-cyclobutyl-2-phenylvinyl)-3-fluoro-1H-indazole] | ≤ 100 | ≥ 40 | ≤ 100 | ++ (++ = a single % value ≧ 40%) |
| Fc1n[nH]c2ccc(/C(=C(/c3ccccc3)C3CCC3)c3ccc(/C=C/c4ncc[nH]4)cc3)cc12 [Example 285, 5-((E)-1-(4-((E)-2-(1H-Imidazol-2-yl)vinyl)phenyl)-2-cyclobutyl-2-phenylvinyl)-3-fluoro-1H-indazole] | ≤ 100 | ≥ 40 | ≤ 100 | ++ (++ = a single % value ≧ 40%) |
| Fc1n[nH]c2ccc(/C(=C(/c3ccccc3)C3CCC3)c3ccc(/C=C/c4cnn[nH]4)cc3)cc12 [Example 286, 5-((E)-1-(4-((E)-2-(1H-1,2,3-Triazol-5-yl)vinyl)phenyl)-2-cyclobutyl-2-phenylvinyl)-3-fluoro-1H-indazole] | ≤ 100 | ≥ 40 | ≤ 100 | ++ (++ = a single % value ≧ 40%) |

The next lines start with results.

| IC50 (MCF-7 cells) [nM] | Emax (ER-α in MCF-7 cells) [%] | DC50 (ER-α in MCF-7 cells) [nM] | SMILES | MCF7 Viability Assay Max Response (MCF-7 cells) |
| --- | --- | --- | --- | --- |
| ≤ 100 | ≥ 40 | ≤ 100 | O=C(O)/C=C/c1ccc(/C(=C(\c2ccc(OC(F)(F)F)cc2Cl)C2CCC2)c2ccc3[nH]nc(F)c3c2)cc1 [Example 273, (E)-3-(4-((E)-2-(2-Chloro-4-(trifluoromethoxy)phenyl)-2-cyclobutyl-1-(3-fluoro-1H-indazol-5-yl)vinyl)phenyl)acrylic acid] | ++ (++ = a single % value ≧ 40%) |
| ≤ 100 | ≥ 40 | ≤ 100 | O=C(O)/C=C/c1ccc(/C(=C(\c2ccc(C(F)(F)F)cc2Cl)C2CCC2)c2ccc3scnc3c2)cc1 [Example 274, (E)-3-(4-((E)-1-(Benzo[d]thiazol-5-yl)-2-(2-chloro-4-(trifluoromethyl)phenyl)-2-cyclobutylvinyl)phenyl)acrylic acid] | ++ (++ = a single % value ≧ 40%) |
| ≤ 100 | ≥ 40 | ≤ 100 | O=C(O)/C=C/c1ccc(/C(=C(\c2ccc(C(F)(F)F)cc2Cl)C2CCC2)c2ccc3[nH]nc(F)c3c2)cc1 [Example 275, (E)-3-(4-((E)-2-(2-Chloro-4-(trifluoromethyl)phenyl)-2-cyclobutyl-1-(3-fluoro-1H-indazol-5-yl)vinyl)phenyl)acrylic acid] | ++ (++ = a single % value ≧ 40%) |
| ≤ 100 | ≥ 40 | ≤ 100 | COc1ccc(/C(=C(\c2ccc(/C=C/c3noc(=O)[nH]3)cc2)c2ccc3[nH]nc(F)c3c2)C2CCC2)c(Cl)c1 [Example 276, 3-((E)-4-((E)-2-(2-Chloro-4-methoxyphenyl)-2-cyclobutyl-1-(3-fluoro-1H-indazol-5-yl)vinyl)styryl)-1,2,4-oxadiazol-5(4H)-one] | ++ (++ = a single % value ≧ 40%) |
| ≤ 100 | ≥ 40 | ≤ 100 | O=c1[nH]c(/C=C/c2ccc(/C(=C(\c3ncc(C(F)(F)F)cc3Cl)C3CCC3)c3ccc4scnc4c3)cc2)no1 [Example 277, 3-((E)-4-((E)-1-(Benzo[d]thiazol-5-yl)-2-(3-chloro-5-(trifluoromethyl)pyridin-2-yl)-2-cyclobutylvinyl)styryl)-1,2,4-oxadiazol-5(4H)-one] | ++ (++ = a single % value ≧ 40%) |

Reference: patent US9499538B2, “Estrogen receptor modulators and uses thereof” (Seragon Pharmaceuticals, Inc., priority 2012, dated 2016)
